These results are taken from article PMC12302426, “Dihydrokoumine, a dual-target analgesic with reduced side effects isolated from a traditional Chinese medicine” (Journal of Advanced Research, 2024).

Molecules are shown by their SMILES. Like-named read-outs stand apart in the source and are kept apart here.

One data set addresses T1, MOR (Homo sapiens, UniProt P35372).
T1 construct: expressed in transfected cells; host or cells: HEK293 cell membranes
Put plainly: Radioligand binding assay, [3H] DAMGO. The conditions noted are these: [3H] DAMGO 0.5 nM. On the procedure:
Radioligand binding assays were conducted using MicroBeta2 (PerkinElmer, USA). Membrane protein preparations MOR and M3R were each prepared at a concentration of 2.5 µg/well. The radio ligands [^3H] DAMGO (specific for MOR) and [^3H]-NMS (specific for M3R) were prepared at concentrations of 0.5 nM and 0.2 nM, respectively. […] For each well, 1 µL of the serially diluted test compounds was transferred, followed by the addition of 100 µL of membrane stock solution and 100 µL of radioligand. The plates were sealed and shaken at 300 rpm at room temperature for one hour. Upon completion of the binding assay, the contents of each well were filtered through Unifilter-96 GF/C filter plates (PerkinElmer, USA). The filter plates were dried for one hour at 50°C and sealed. The trapped ^3H (tritium) on the filters was then quantified using the MicroBeta2. The percentage of inhibition or binding was subsequently calculated.

For another data set, the target named is T2, Kappa opioid receptor (Homo sapiens, UniProt P41145).
T2 construct: expressed in transfected cells; host or cells: HEK293-Kappa
Briefly: DMR agonist and desensitization assay in HEK293-Kappa cells. It is filed as cell-based. On the procedure:
(§1) DMR assays were performed using an Epic® BT system (Corning, NY, USA). All used cell lines were directly seeded in Epic 384-well biosensor microplates with a seeding density of 25,000 cells per well. After being cultured for about 22 h, the cells formed a monolayer with a confluency of about 95 % in the cell culture medium. Then the cells were manually washed using assay buffer (1 × HBSS buffer, 10 mM HEPES, pH = 7.4) and maintained in 30 μL of the assay buffer for 1 h. All samples were dissolved in DMSO and diluted freshly with the assay buffer containing 0.1 % BSA.
The DMR assays were conducted as follows. […] In the case of the DMR desensitization assay, cells were pretreated with analytes for one hour before introducing a specific agonist at the indicated concentration, and the agonist-induced DMR signals were monitored for one hour. Finally, for the DMR antagonist assay, cells underwent a 1-hour pretreatment with an antagonist before the addition of a specific agonist at the indicated concentration, and subsequent DMR signals were recorded over one hour.
(§2) The receptor selectivity was evaluated against a set of G protein-coupled receptors (GPCRs), including opioid receptor (Delta/Kappa/NOP), dopamine receptor (D1/D2), orphan receptor (GPR35), adrenergic receptor (α2A/β2), serotonin receptor (5HT2A), histamine receptor (H1) and cannabinoid receptor (CB1). Following a 1-hour pretreatment with DK, a 2-min baseline was established before introducing probes and monitoring DMR signals for another hour. The cells and probes were as follows: Delta, HEK293-Delta, SNC162; Kappa, HEK293-Kappa, ICI199441; NOP, HEK293-NOP, MCOPPB; D1, HEK293-D1, dopamine; D2, HEK293-D2, dopamine; GPR35, CHO-K1-hGPR35, zaprinast; 5HT2A, HEK293-5HT2A, 5-hydroxytryptamine; α2A, HEK293-α2A, L-Noradrenaline; β2, A431, isoprenaline; H1, A431, histamine; CB1, CHO-K1-CB1, CP 55940. The other detailed process was the same as above.

For the next data set, the target named is T3, M2R (Homo sapiens, UniProt P08172).
T3 construct: expressed in transfected cells
Put plainly: FLIPR assay in HEK293-M2 cells (carbachol-induced Ca2+). It is filed as cell-based. To be noted: DK pretreatment one hour. On the procedure:
FLIPR assay was carried out as reported earlier. Cell lines were seeded in 96-well plates with black walls (Greiner, USA) at 8.0 × 10^4 cells per well. After approximately 22 h of incubation, the cells were exposed to Calcium-6 dye (Molecular Devices, USA) in HBSS buffer supplemented with 20 mM HEPES (pH 7.4) at 37°C for one hour. Samples, redissolved in DMSO and housed in 96-well drug plates, underwent dilution with FLIPR buffer and subsequent automated introduction to the cells. […] […] Results were presented as fluorescence (arbitrary units) plotted against time.

Another data set deals with T4, adrenergic receptor α2A (Homo sapiens, UniProt P08913).
T4 construct: expressed in transfected cells; host or cells: HEK293-α2A
Briefly: DMR desensitization assay, HEK293-α2A, probe L-Noradrenaline. It is filed as cell-based. The conditions noted are these: 100 μM DK. On the procedure: as §1
as §2, with “The other detailed process was the same as above.” left out

The next data set relates to C57BL/6 male mice. Put plainly: Formalin paw test. It is filed as in vivo. On the procedure:
The formalin test in mice was conducted following established procedures. Six-week-old C57BL/6 male mice were used in […] (n = 6). Mice were individually acclimated in a 4-liter glass beaker for 30 min prior to the test. Solvent mixture, […], morphine (5 mg/kg), or DK (20, 40 mg/kg) were injected intraperitoneally (5 mL/kg) 15 min prior to formalin injection. Formalin solution (5 %, 25 μL) was injected into the dorsal surface of the right hind paw using a 50 μL Hamilton syringe with a 30-gauge needle. […] Evaluation of MOR agonistic activity of dihydrokoumine, naloxone (2 mg/kg) was first injected intraperitoneally, immediately followed by the injection of morphine (5 mg/kg) or DK (20 mg/kg).

The nature of data set [1]: Pharmacokinetics, oral bioavailability. The class given is in vivo, SD male rats. To be noted: rats, 20 mg/kg (method). On the procedure:
Oral bioavailability evaluation was as follows. SD male rats (about 250 g) were used in bioavailability evaluation (n = 3). […] were given a single dose of DK (20 mg/kg, 5 mL/kg, […].) through intragastric administration or tail vein injection. Blood (300 μL) was collected at 0.083, 0.167, 0.25, 0.5, 1, 2, 4, 6, 8, and 10 h, into EDTA tubes. Plasma was obtained by mixing with acetonitrile and centrifugation (3000 r/min, 10 min).
Brain and plasma drug levels were measured by LC-30AD (Shimadzu Corporation Kyoto, Japan) and SCIEX QTRAP-6500 (AB Sciex, Foster City, CA, USA) and calculated by comparing with internal standard (koumine, 200 ng/mL). The used column was Waters ACQUITY UPLC BEH C18 (2.1*150 mm, 1.7 μm); the mobile phase was composed of (A) 0.1 % FA in water and (B) 0.1 % FA in ACN; the elution gradient was 20 % B (0–3 min), 20–40 % B (3–5 min), 40–95 % B (5–6 min); the flow rate was 0.3 mL/min; and detection was in the positive mode.

T2 sequence (P41145 whole entry): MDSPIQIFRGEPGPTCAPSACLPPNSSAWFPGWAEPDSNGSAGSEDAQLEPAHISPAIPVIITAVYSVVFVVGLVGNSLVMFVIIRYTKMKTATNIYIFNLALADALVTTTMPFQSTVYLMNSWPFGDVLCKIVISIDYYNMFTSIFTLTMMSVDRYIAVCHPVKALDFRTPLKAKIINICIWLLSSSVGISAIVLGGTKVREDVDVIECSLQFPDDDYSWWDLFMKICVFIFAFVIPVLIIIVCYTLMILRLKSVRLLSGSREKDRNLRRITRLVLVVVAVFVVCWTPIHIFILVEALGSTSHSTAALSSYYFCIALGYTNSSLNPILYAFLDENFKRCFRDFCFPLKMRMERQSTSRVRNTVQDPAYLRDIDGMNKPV
T1 sequence (P35372 whole entry): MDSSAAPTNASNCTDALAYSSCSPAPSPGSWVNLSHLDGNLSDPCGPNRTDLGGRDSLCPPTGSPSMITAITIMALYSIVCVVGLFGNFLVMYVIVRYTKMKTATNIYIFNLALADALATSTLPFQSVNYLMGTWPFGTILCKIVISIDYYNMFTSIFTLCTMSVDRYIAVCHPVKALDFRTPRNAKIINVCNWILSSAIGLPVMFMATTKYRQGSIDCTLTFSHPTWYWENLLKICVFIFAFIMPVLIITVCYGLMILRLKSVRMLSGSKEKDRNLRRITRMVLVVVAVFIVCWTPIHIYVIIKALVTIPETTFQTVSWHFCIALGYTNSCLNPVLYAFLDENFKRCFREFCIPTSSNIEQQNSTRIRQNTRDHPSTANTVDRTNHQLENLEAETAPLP
T4 sequence (P08913 whole entry): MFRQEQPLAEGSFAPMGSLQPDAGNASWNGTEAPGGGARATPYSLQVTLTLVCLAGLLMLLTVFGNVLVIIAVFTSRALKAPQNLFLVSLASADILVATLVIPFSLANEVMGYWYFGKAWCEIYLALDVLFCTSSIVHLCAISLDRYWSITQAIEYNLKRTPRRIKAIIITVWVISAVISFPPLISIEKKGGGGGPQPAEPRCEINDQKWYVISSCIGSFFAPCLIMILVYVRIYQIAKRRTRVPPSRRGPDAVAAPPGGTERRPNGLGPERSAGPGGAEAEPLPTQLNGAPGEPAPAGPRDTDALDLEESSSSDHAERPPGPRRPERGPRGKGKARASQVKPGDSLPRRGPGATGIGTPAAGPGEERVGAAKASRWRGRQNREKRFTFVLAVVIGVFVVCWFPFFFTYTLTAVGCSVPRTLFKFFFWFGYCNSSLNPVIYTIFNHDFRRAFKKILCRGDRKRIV
T3 sequence (P08172 whole entry): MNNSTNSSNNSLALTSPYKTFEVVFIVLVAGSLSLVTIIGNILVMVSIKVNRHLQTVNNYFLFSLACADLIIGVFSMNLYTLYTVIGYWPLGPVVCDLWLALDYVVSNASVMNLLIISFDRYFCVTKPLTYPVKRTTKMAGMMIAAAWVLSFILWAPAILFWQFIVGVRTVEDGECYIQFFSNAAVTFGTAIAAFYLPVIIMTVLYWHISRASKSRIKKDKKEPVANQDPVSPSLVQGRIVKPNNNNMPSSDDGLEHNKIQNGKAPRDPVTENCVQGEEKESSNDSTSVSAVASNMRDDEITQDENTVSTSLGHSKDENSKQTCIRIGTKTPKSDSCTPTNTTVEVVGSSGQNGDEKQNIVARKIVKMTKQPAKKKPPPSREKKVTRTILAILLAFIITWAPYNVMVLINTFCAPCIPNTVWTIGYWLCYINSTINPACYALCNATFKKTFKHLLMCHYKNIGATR

One may read the Ki as a measure of affinity in units of concentration, obtained from inhibition or displacement. A low value points to higher affinity. In general, bioavailability refers to dose-corrected exposure relative to a reference, in per cent. A higher bioavailability goes with much systemic uptake. On MOR, `C=CC12CN(C)C3CC14c1ccccc1NC4C1CC2C3CO1` (stereo not shown) [DK] displayed a Ki of 85.7 ± 36.1 nM. In addition, the “efficacy (maximal inhibition of radioligand binding)” value on MOR is recorded as 100%. Also, at Kappa opioid receptor (HEK293-Kappa cells), the DMR agonist response result is listed as “unable to trigger a concentration-dependent DMR response”. The “probe-induced DMR response after DK pretreatment” value at Kappa opioid receptor (HEK293-Kappa, 25 nM ICI199441, pretreatment one hour) is on record as “had little effect on the DMR response produced by the respective probes”. Further, the “antagonist effect at high concentration (decrease of probe DMR response)” value at Kappa opioid receptor (HEK293-Kappa, ICI199441, high-concentration of DK) is recorded as “very weak antagonist effects”. In addition, the “inhibition of carbachol-induced Ca2+ response” value on M2R is reported as “could not concentration-dependently inhibit”. In addition, on adrenergic receptor α2A, the “reduction of probe DMR response (desensitization)” value is “almost unable to reduce the response”. The “effect of naloxone on antinociception in formalin test” value with C57BL/6 male mice (DK 20 mg/kg, naloxone 2 mg/kg) is “Naloxone antagonized the antinociception of DK”. In the data set on C57BL/6 male mice (DK 20, 40 mg/kg i.p., formalin 5 %), the “licking time in Phase I and Phase II” value is “remarkable decrease in the licking time in Phase I at both doses and in Phase II at high doses”. For the same molecule, the AUC in data set [1] (male, SD (Sprague-Dawley), rat, iv, plasma, i.v., read-out: (AUC)0-12 h, intravenous injection) came to 902 ng·h/mL; in data set [1] (male, SD (Sprague-Dawley), rat, po, plasma, i.g., read-out: (AUC)0-12 h, intragastric administration) it was 384 ng·h/mL. In data set [1] (male, SD (Sprague-Dawley), rat, plasma, oral, i.g. vs i.v.), this molecule gave a bioavailability of 42.6%. Moreover, in data set [1] (intragastric (i.g.) administration), the “time of highest plasma concentration” value worked out at 15 min.
